Assay results taken from patent EP4610262A1, “MACROCYCLIC COMPOUND AS CDK9 INHIBITOR AND USE THEREOF” (Artivila Biopharma, priority 2022, dated 2024).

Columns and labels:
Experiment in all cases: CDK kinase selectivity (HTRF / ADP-Glo)
Assay type in all cases: biochemical
[1] = biological target: CDK5/p35NCK (Homo sapiens, UniProt Q00535); conditions: compound at 0.1 µM; read-out: Inhibition rate CDK5/p35NCK
Experimental: (§1) The selectivity of the test compounds against CDK kinases was detected. The compounds were tested at a concentration of 0.1 µM, and the inhibition rate of CDK kinases by the compounds was detected in duplicate wells, mainly using HTRF and ADP-Glo detection methods.
(§2) The HTRF detection method was conducted as follows: 2-fold ATP/substrate solution and 2-fold kinase/metal ion solution were prepared respectively with a kinase reaction buffer, and 25 nL of diluted compound solution was transferred to a 384-well detection plate with Echo 655. After centrifugation, the plate was added with 2.5 µL of 2-fold kinase/metal ion solution and incubated at 25°C for 10 minutes. After 10 minutes, 2.5 µL of 2-fold substrate/ATP solution was added to the 384-well detection plate and incubated at 25°C for 60 minutes. 2 kinase detection reagent (XL665 and antibody) was prepared with detection buffer, and 5 µL of kinase detection reagent was added to the 384-well detection plate and incubated at 25°C for 60 minutes. The fluorescence signals at 620 nm (Cryptate) and 665 nm (XL665) were read by the microplate reader, and the ratio and the inhibition rate of kinase activity by the compound were calculated.
(§3) The ADP-Glo detection method was conducted as follows. 2-fold ATP/substrate solution and 2-fold kinase/metal ion solution were prepared respectively with a kinase reaction buffer. 20 nL of diluted compound solution was transferred to a 384-well detection plate by Echo 655. After centrifuged, the 384-well detection plate was added with 2 µL of 2 × kinase/metal ion solution, and incubated at 25°C for 10 minutes. After 10 minutes, the 384-well detection plate was added with 2 µL of 2 × substrate/ATP solution and incubated at 25°C for 60 minutes. 4 µL of ADP-Glo reagent was added to each well and incubated at room temperature for 40 minutes. 10 µL of ADP detection reagent was added to each well and incubated at room temperature for 40 minutes. The chemiluminescent signal was detected with a microplate reader and the inhibition rate of kinase activity was calculated.

[2] = biological target: CDK5/p25NCK (Homo sapiens, UniProt Q00535); conditions: compound at 0.1 µM; read-out: Inhibition rate CDK5/p25NCK
Experimental: as §1, §2, §3

[3] = biological target: CDK13/CyclinK (Homo sapiens, UniProt Q14004); conditions: compound at 0.1 µM; read-out: Inhibition rate CDK13/CyclinK
Experimental: as §1, §2, §3

[4] = biological target: CDK16/CyclinY (Homo sapiens, UniProt Q00536); conditions: compound at 0.1 µM; read-out: Inhibition rate CDK16/CyclinY
Experimental: as §1, §2, §3

[5] = biological target: CDK6/CycD 1 (Homo sapiens, UniProt Q00534); conditions: compound at 0.1 µM; read-out: Inhibition rate CDK6/CycD 1
Experimental: as §1, §2, §3

[6] = biological target: CDK2/CycE1 (Homo sapiens, UniProt P24941); conditions: compound at 0.1 µM; read-out: Inhibition rate CDK2/CycE1
Experimental: as §1, §2, §3

[7] = biological target: CDK2/CyCA2 (Homo sapiens, UniProt P24941); conditions: compound at 0.1 µM; read-out: Inhibition rate CDK2/CyCA2
Experimental: as §1, §2, §3

[8] = biological target: CDK12/CyclinK (Homo sapiens, UniProt Q9NYV4); conditions: compound at 0.1 µM; read-out: Inhibition rate CDK12/CyclinK
Experimental: as §1, §2, §3

[9] = biological target: CDK4/cycD1 (Homo sapiens, UniProt P11802); conditions: compound at 0.1 µM; read-out: Inhibition rate CDK4/cycD1
Experimental: as §1, §2, §3

[10] = biological target: CDK6/CycD3 (Homo sapiens, UniProt Q00534); conditions: compound at 0.1 µM; read-out: Inhibition rate CDK6/CycD3
Experimental: as §1, §2, §3

[11] = biological target: CDK3/CycE1 (Homo sapiens, UniProt Q00526); conditions: compound at 0.1 µM; read-out: Inhibition rate CDK3/CycE1
Experimental: as §1, §2, §3

[12] = biological target: CDK18/CyclinY (Homo sapiens, UniProt Q07002); conditions: compound at 0.1 µM; read-out: Inhibition rate CDK18/CyclinY
Experimental: as §1, §2, §3

[13] = biological target: CDK9/CycT1 (Homo sapiens, UniProt P50750); conditions: compound at 0.1 µM; read-out: Inhibition rate CDK9/CycT1
Experimental: as §1, §2, §3

[14] = biological target: CDK4/CycD3 (Homo sapiens, UniProt P11802); conditions: compound at 0.1 µM; read-out: Inhibition rate CDK4/CycD3
Experimental: as §1, §2, §3

[15] = biological target: CDK7/CycH/MAT1 (Homo sapiens, UniProt P50613); conditions: compound at 0.1 µM; read-out: Inhibition rate CDK7/CycH/MAT1
Experimental: as §1, §2, §3

[16] = biological target: CDK1/CycA2 (Homo sapiens, UniProt P06493); conditions: compound at 0.1 µM; read-out: Inhibition rate CDK1/CycA2
Experimental: as §1, §2, §3

[17] = biological target: CDK19/CycC (Homo sapiens, UniProt Q9BWU1); conditions: compound at 0.1 µM; read-out: Inhibition rate CDK19/CycC
Experimental: as §1, §2, §3

[18] = biological target: CDK1/CycE1 (Homo sapiens, UniProt P06493); conditions: compound at 0.1 µM; read-out: Inhibition rate CDK1/CycE1
Experimental: as §1, §2, §3

[19] = biological target: CDK1/CycB1 (Homo sapiens, UniProt P06493); conditions: compound at 0.1 µM; read-out: Inhibition rate CDK1/CycB1
Experimental: as §1, §2, §3

CDK18/CyclinY, sequence (Q07002 whole entry): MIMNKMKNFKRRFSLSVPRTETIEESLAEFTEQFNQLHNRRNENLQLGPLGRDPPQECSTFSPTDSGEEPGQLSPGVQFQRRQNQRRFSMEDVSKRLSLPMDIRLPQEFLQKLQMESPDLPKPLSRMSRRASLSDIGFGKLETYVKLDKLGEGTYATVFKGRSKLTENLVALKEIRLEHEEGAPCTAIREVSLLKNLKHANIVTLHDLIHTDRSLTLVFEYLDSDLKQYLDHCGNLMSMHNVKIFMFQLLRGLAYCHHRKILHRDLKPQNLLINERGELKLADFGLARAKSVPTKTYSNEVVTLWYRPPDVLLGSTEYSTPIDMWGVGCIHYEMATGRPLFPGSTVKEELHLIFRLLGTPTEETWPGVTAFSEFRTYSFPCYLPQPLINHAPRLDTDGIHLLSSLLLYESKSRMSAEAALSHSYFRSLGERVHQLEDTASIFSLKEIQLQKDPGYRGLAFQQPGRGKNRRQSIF
CDK18/CyclinY, sequence (Q8ND76 whole entry partner): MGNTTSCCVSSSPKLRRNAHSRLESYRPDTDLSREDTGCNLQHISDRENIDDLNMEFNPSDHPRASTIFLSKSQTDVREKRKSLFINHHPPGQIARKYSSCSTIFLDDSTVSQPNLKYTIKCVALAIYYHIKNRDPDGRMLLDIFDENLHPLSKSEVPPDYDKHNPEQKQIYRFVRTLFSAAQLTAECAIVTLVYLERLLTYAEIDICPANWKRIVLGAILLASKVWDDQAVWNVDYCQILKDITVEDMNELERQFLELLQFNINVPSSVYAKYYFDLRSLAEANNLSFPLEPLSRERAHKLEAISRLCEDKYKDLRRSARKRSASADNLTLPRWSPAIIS
CDK1/CycA2, sequence (P06493 whole entry): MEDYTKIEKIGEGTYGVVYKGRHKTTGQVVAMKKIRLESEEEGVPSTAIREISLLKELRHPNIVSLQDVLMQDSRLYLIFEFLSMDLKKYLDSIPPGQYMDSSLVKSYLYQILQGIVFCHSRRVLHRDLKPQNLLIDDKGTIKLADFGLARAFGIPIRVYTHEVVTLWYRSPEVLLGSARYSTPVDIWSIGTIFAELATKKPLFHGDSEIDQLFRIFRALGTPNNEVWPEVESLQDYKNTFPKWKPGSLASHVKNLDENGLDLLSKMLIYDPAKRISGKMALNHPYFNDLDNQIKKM
CDK1/CycA2, sequence (P20248 whole entry, further chain): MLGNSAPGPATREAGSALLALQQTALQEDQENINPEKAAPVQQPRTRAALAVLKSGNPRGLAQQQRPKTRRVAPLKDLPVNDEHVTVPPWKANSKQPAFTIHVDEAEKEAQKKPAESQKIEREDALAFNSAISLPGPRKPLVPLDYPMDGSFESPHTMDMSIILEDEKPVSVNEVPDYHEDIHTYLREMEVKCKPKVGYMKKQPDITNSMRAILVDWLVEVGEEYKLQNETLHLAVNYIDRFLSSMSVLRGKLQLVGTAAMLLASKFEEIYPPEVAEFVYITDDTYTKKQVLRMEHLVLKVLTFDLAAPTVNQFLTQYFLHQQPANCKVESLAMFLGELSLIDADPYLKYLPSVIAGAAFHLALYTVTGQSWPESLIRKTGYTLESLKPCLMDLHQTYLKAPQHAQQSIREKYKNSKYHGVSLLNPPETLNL
CDK1/CycB1, sequence (P06493 whole entry): as the sequence (P06493 whole entry) above
CDK1/CycB1, sequence (P14635 whole entry partner): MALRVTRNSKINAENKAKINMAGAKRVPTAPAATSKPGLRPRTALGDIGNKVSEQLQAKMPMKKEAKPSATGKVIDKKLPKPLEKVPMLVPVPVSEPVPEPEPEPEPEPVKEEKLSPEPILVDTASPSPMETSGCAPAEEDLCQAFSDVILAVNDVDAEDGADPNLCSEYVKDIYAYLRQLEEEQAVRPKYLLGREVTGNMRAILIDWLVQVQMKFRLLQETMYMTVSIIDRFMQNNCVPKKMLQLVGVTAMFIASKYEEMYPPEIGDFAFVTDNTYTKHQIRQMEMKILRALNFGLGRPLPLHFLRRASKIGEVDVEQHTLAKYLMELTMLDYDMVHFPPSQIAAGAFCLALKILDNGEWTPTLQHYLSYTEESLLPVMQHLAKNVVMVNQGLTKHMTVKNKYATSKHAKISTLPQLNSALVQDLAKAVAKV
CDK9/CycT1, sequence (P50750 whole entry, species assumed): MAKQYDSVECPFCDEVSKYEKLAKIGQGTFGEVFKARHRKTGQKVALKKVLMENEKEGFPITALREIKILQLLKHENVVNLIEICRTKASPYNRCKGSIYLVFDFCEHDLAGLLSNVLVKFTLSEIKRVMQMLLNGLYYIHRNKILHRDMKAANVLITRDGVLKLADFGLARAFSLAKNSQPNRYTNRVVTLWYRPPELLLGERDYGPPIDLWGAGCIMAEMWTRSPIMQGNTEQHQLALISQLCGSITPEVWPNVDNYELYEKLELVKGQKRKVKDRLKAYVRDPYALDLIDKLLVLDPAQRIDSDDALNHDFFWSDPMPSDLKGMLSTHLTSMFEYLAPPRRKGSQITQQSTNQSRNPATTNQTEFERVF
CDK9/CycT1, sequence (O60563 whole entry partner, species assumed): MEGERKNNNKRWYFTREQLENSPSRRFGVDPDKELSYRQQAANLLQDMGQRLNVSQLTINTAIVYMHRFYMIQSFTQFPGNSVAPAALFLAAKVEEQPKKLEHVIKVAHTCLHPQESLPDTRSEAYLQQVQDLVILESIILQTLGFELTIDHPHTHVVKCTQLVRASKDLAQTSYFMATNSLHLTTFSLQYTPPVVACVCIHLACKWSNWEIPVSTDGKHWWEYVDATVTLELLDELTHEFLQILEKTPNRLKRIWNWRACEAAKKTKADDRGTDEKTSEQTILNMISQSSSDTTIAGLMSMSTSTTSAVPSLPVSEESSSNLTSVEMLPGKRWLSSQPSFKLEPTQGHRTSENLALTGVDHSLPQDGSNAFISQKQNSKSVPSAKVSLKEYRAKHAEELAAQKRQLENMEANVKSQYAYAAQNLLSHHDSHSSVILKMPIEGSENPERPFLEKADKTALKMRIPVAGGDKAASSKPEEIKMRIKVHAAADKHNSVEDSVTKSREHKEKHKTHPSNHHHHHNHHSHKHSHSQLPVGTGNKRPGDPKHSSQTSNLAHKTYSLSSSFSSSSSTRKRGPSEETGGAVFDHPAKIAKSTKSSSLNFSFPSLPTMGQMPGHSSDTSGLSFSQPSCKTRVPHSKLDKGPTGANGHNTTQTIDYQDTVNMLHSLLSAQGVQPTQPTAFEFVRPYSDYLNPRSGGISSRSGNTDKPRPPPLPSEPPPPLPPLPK
CDK5/p35NCK, sequence (Q00535 whole entry): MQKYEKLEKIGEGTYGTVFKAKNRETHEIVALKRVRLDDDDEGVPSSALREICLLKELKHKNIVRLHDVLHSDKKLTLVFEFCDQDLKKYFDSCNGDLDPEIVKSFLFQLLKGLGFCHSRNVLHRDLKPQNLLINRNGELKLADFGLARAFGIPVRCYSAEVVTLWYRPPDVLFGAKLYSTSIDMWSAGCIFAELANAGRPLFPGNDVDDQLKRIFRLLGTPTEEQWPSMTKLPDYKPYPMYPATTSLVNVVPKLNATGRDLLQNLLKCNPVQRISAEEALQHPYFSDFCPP
CDK5/p35NCK, sequence (Q15078 2-307 partner limits assumed): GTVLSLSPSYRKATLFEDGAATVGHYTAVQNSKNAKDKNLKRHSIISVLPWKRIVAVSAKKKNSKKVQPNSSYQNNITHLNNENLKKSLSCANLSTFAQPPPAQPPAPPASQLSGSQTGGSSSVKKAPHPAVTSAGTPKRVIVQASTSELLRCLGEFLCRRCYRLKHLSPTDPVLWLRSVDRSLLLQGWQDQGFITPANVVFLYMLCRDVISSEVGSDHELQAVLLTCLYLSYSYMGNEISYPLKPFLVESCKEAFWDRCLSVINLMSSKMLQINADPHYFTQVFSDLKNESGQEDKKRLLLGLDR
CDK5/p25NCK, sequence (Q00535 whole entry): as the sequence (Q00535 whole entry) above
CDK5/p25NCK, sequence (Q15078 99-307 partner limits assumed): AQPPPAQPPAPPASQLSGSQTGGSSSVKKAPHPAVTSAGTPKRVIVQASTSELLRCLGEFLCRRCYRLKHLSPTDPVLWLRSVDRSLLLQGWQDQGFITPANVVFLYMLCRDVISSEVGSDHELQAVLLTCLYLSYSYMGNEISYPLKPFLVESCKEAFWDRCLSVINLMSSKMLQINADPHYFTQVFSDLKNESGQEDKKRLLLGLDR

Clc1cnc2nc1NCCCCCNCc1cccc(c1)N2 [Compound 8, 1^5-chloro-2,5,11-triaza-1(2,4)-pyrimidina-3(1,3)-benzenacyclodecaphane]
inhibition at 0.1 µM [1]: < 50%
inhibition at 0.1 µM [2]: 50 to 75%
inhibition at 0.1 µM [3]: 50 to 75%
inhibition at 0.1 µM [4]: 50 to 75%
inhibition at 0.1 µM [5]: < 50%
inhibition at 0.1 µM [6]: 50 to 75%
inhibition at 0.1 µM [7]: < 50%
inhibition at 0.1 µM [8]: 50 to 75%
inhibition at 0.1 µM [9]: < 50%
inhibition at 0.1 µM [10]: < 50%
inhibition at 0.1 µM [11]: 50 to 75%
inhibition at 0.1 µM [12]: < 50%
inhibition at 0.1 µM [13]: > 95%
inhibition at 0.1 µM [14]: 50 to 75%
inhibition at 0.1 µM [15]: 50 to 75%
inhibition at 0.1 µM [16]: < 50%
inhibition at 0.1 µM [17]: < 50%
inhibition at 0.1 µM [18]: < 50%
inhibition at 0.1 µM [19]: < 50%
